Experimental data as given in US20090105126A1 (priority 2007, published 2009).
“And” between values parts separate entries of the source, which are not always exact repeats. Equal entries are not always repeated. Where two headings read alike, the source gives them in different places.

Legend:
[1] = Fluorescence anisotropy of entrapped calcein; assay type: physicochemical; conditions: calcein probe, excitation 495 nm, emission 520 nm; higher value = more viscous
Procedure: DPPC was added by ethanol injection to make 5 mg/ml liposome at 50° C. […] Fluorescence anisotropy was measured at an excitation wavelength of 495 nm and emission wavelength of 520 nm. Fluorescence anisotropy is an order parameter, which ranged from 0 to 0.4 in aqueous solution. The higher value indicates more viscous solution.

[2] = Concentration of vancomycin in the lungs of mice after inhalation therapy (Example 8); conditions: for [VANCOMYCIN] in Lung, animals n/N (second line of cell): Inhalation, BID x 3; for Vancomycin (μg/g), mean / Vancomycin (μg/lung), mean / Vancomycin (μg/g), individual mice / Vancomycin (μg/lung), individual mice: 4 days after inhalation therapy; for Vancomycin (μg/g), mean / Vancomycin (μg/lung), mean: group mean; for Vancomycin (μg/g), individual mice / Vancomycin (μg/lung), individual mice: listed as Soluble Vancomycin
Procedure: The instillation was performed through the nostrils route using micropipette with tips (Gilson, calibrated with Femt Scientific). The mouse is held by its ears and 20 μl of bacteria are gradually (2 μl per breath) released into the nostrils (10 μl in each nostril) with the help of a micro-pipette. The mice were observed every 10 min until they fully recovered from the anesthesia.
There were 5 groups and each group had 12 mice. […] Mice in group 5 received sterile normal saline (0.9% NaCl) by inhalation.

[3] = test system: S. pneumoniae (ATCC 6303); conditions: for Log CFU/Lung, animals n/N (second line of cell) / Log CFU/mL of Blood, animals n/N (second line of cell) / Log CFU/mL of Blood: Inhalation, BID x 3; for Log CFU/mL of Blood: animals surviving until Day 7; for mice in which S. pneumoniae in the lungs was not eradicated: mice surviving to day 7
Procedure: Sixty (60) Thirty six (36) female mice (Swiss Webster, Charles River) were received in the vivarium and acclimated for at least 7 days prior to initiation of the protocol. All mice were instilled via nasal insufflation with S. pneumoniae (ATCC, 6303, 4.1×10^4 CFU/ mice) after being anesthetized with Ketamine/Xylazine solution (80 mg/kg and 10 mg/kg). The instillation was performed through the nostrils route using micropipette with tips (Gilson, calibrated with Femt Scientific). The mouse is held by its ears and 20 μl of bacteria are gradually (2 μl per breath) released into the nostrils (10 μl in each nostril) with the help of a micro-pipette. The mice were observed every 10 min until they fully recovered from the anesthesia.
Mice were dosed on days 1, 2 and 3. There were 5 groups and each group had 12 mice. […] Mice in group 5 received sterile normal saline (0.9% NaCl) by inhalation.
Determination of bacterial colonies in the lung and blood of mice. Mice that were euthanized prior to day 7 and mice that survived to day 7 were euthanized by CO2 asphyxiation. The blood was collected by cardiac puncture after euthanization. A 1/10 dilution of blood was made in BHI broth immediately. The lungs were removed aseptically, weighed and placed into 1 ml of BHI broth in a sterile 5 ml Polypropylene round-bottom tube.
Lungs were homogenized sterilely with a Polytron^R (Brinkmann, Rexdale, Ontario, Canada) using the maximum speed in the 5 ml Polypropylene round-bottom tube. The tissues were homogenized until a smooth. Ten-fold dilutions of the lung homogenates were made in BHI broth supplemented with 10 ug/ml of Colistin(C) 5 ug/ml of Oxolinic (O). One hundred (100) ul of each dilution of lung homogenates were plated out onto CBO agar plates and spread. The plates were incubated for 24 hours at 37° C. then colonies were counted.

[4] = test system: S. pneumoniae (ATCC 6303)
Procedure: Thirty six (36) female mice (Swiss Webster, Charles River) were received in the vivarium and acclimated for at least 7 days prior to initiation of the protocol. […] Mice were dosed on days 1, 2 and 3. […] Mice in Group 3 received 20 min inhalation with sterile 0.9% NaCl for inhalation (Cardinal, Lot #WBA194). Euthanization and determination of bacterial colonies in blood and lungs were performed as described in Example 8.

[5] = Intraperitoneal, BID x 3, 12 mg/kg/day
[6] = Intraperitoneal, BID x 3, 12 mg/kg/day, animals surviving until Day 7
[7] = intraperitoneal injection 6 mg/kg BID

CN[C@H](CC(C)C)C(=O)N[C@H]1C(=O)N[C@@H](CC(N)=O)C(=O)N[C@H]2C(=O)N[C@H]3C(=O)N[C@H](C(=O)N[C@H](C(=O)O)c4cc(O)cc(O)c4-c4cc3ccc4O)[C@H](O)c3ccc(c(Cl)c3)Oc3cc2cc(c3O[C@@H]2O[C@H](CO)[C@@H](O)[C@H](O)[C@H]2O[C@H]2C[C@](C)(N)[C@H](O)[C@H](C)O2)Oc2ccc(cc2Cl)[C@H]1O [Vancomycin solution (15 mg/ml), vancomycin]
Fluorescence anisotropy [1]: 0.014

CN[C@H](CC(C)C)C(=O)N[C@H]1C(=O)N[C@@H](CC(N)=O)C(=O)N[C@H]2C(=O)N[C@H]3C(=O)N[C@H](C(=O)N[C@H](C(=O)O)c4cc(O)cc(O)c4-c4cc3ccc4O)[C@H](O)c3ccc(c(Cl)c3)Oc3cc2cc(c3O[C@@H]2O[C@H](CO)[C@@H](O)[C@H](O)[C@H]2O[C@H]2C[C@](C)(N)[C@H](O)[C@H](C)O2)Oc2ccc(cc2Cl)[C@H]1O [Vancomycin solution (300 mg/ml), vancomycin]
Fluorescence anisotropy [1]: 0.17

CN[C@H](CC(C)C)C(=O)N[C@H]1C(=O)N[C@@H](CC(N)=O)C(=O)N[C@H]2C(=O)N[C@H]3C(=O)N[C@H](C(=O)N[C@H](C(=O)O)c4cc(O)cc(O)c4-c4cc3ccc4O)[C@H](O)c3ccc(c(Cl)c3)Oc3cc2cc(c3O[C@@H]2O[C@H](CO)[C@@H](O)[C@H](O)[C@H]2O[C@H]2C[C@](C)(N)[C@H](O)[C@H](C)O2)Oc2ccc(cc2Cl)[C@H]1O [Vancomycin, vancomycin]
[VANCOMYCIN] in Lung, animals n/N (second line of cell) ([2]; 3.8 mg/kg/day): 12/12
[VANCOMYCIN] in Lung, animals n/N (second line of cell) ([2]; 6.0 mg/kg/day): 12/12
Vancomycin (μg/g), mean ([2]; inhaled 3.8 mg/kg): 34 µg/g
Vancomycin (μg/lung), mean ([2]; inhaled 3.8 mg/kg): 5 μg/lung
Vancomycin (μg/g), individual mice ([2]; inhaled 3.8 mg/kg): 14.0 µg/g and 37.0 µg/g
Vancomycin (μg/lung), individual mice ([2]; inhaled 3.8 mg/kg): 5.8 μg/lung and 5.2 μg/lung (2×) and 6.8 μg/lung and 3.4 μg/lung and 4.7 μg/lung (2×) and 5.9 μg/lung and 2.0 μg/lung and 3.6 μg/lung and 8.1 μg/lung and 6.1 μg/lung
Vancomycin (μg/g), mean ([2]; inhaled 6 mg/kg): 61 µg/g
Vancomycin (μg/lung), mean ([2]; inhaled 6 mg/kg): 10 μg/lung
Vancomycin (μg/g), individual mice ([2]; inhaled 6 mg/kg): 42.0 µg/g and 59.0 µg/g and 66.0 µg/g
Vancomycin (μg/lung), individual mice ([2]; inhaled 6 mg/kg): 7.6 μg/lung and 8.8 μg/lung and 6.4 μg/lung and 9.7 μg/lung and 9.0 μg/lung and 9.3 μg/lung and 8.3 μg/lung and 14.0 μg/lung and 9.8 μg/lung
mice showing bacterial level in lungs ([3]; 3.8 mg/kg/day, 7 days, FIG. 8): > 90%
bacterial level in lungs ([3]; 6.0 mg/kg/day, 7 days, FIG. 8): still showed substantial bacterial level
Log CFU/Lung, animals n/N (second line of cell) ([3]; 3.8 mg/kg/day): 11/12
Log CFU/mL of Blood, animals n/N (second line of cell) ([3]; 3.8 mg/kg/day): 0/12
Log CFU/mL of Blood ([3]; 3.8 mg/kg/day): 0 Log CFU/mL
Log CFU/Lung, animals n/N (second line of cell) ([3]; 6.0 mg/kg/day): 12/12
Log CFU/mL of Blood, animals n/N (second line of cell) ([3]; 6.0 mg/kg/day): 0/12
Log CFU/mL of Blood ([3]; 6.0 mg/kg/day): 0 Log CFU/mL
Log10 CFU/lung, individual mice ([3]; inhalation 3.8 mg/kg for 3 days, day 7, 1 = limit of detection, no colonies detected): 1 Log10 CFU/lung and 2 Log10 CFU/lung
mice in which S. pneumoniae in the lungs was not eradicated ([3]; inhaled 3.8 mg/kg): 92%
bacteria in blood ([3]; inhaled 6 mg/kg and 3.8 mg/kg, day 7): no bacteria in their blood
mice in which S. pneumoniae in the lungs was not eradicated ([3]; inhaled 6 mg/kg): 100%
Survival ([3]; inhaled, 6 or 3.8 mg/kg/day on days 1, 2 and 3, 12 mice per group, FIG. 4): 100%
Log CFU/Lung, animals n/N (second line of cell) [4, 5]: 3/12
Log CFU/mL of Blood, animals n/N (second line of cell) [4, 5]: 5/12
Log CFU/Lung [4, 6]: 0.7 ± 1.3 Log CFU/Lung
Log CFU/mL of Blood [4, 6]: 1.7 ± 2.1 Log CFU/mL
mice in which S. pneumoniae in the lungs was not eradicated [4, 7]: 25%
mice in which S. pneumoniae was not eradicated from the blood [4, 7]: 42%
mice surviving to day 7 ([4]; intraperitoneal injection 6 mg/kg BID, days 1, 2 and 3, n=12): 100%
vancomycin in the lungs (IP 12 mg/kg/day, day seven, listed as free vancomycin, 12 mg/kg/day): no vancomycin deposition in lung was detected
vancomycin in the lungs (IP injections, 4 days after the end of therapy): No detectable concentrations
initial daily lung dose (IP, based on 4% of the delivered dose in the lungs 30 min post IP injections): 15 ug of vancomycin/lung
[VANCOMYCIN] in Lung, animals n/N (second line of cell) [5]: 0/12
[VANCOMYCIN] in Lung [6]: 0 mg/g
vancomycin after IP injection (Six (6) hours after IP injection, Swiss Webster mice): no detectable vancomycin was observed
